# From US20240261375A1, “PHARMACEUTICAL COMPOSITION FOR TREATING OR PREVENTING DISORDER ASSOCIATED WITH ADMINISTRATION OF ANTICANCER AGENT” (LTT BIO-PHARMA CO., LTD., priority 2021, published 2024)
# Legend:
# [1] = test system: Large intestine cancer cells (colo320, HCT116); assay: Proliferation of large intestine cancer cells (CCK-8); assay type: cell-based; settings: OXA dilutions + PC-SOD 50 μg/mL, 72 hours; FIG. 6
# Experimental: Large intestine cancer cells (colo320, HCT116) were added to RPM1640 medium (Thermo Fisher Scientific Inc.) containing 10% fetal bovine serum and 100 units/mL penicillin-streptomycin (Gibco BRL) and cultured at 37° C. in a 5% CO2 incubator.
# Cells were seeded on a 96-well plate at 10 000 cells/well and treated with a test solution 24 hours later. A test solution containing OXA alone was diluted 3-fold from 100 μM (10 levels) and added to a 96-well plate. A test solution containing OXA+PC-SOD was obtained by adding the same concentrations of OXA to PC-SOD (50 μg/mL) (n=3 per group). After cells were cultured for 72 hours, a CCK-8 solution was added in a volume of 1/10 of the solution in each well, and the mixture was measured at 490 nm of absorbance (Tecan, Tecan Japan). Data were expressed with mean±standard error (SEM). It should be noted that experiment conditions were allowed to be changed as required.
# [2] = test system: L5 DRG neurons of OXA-treated rats; assay: Assessment of pathological damage to DRG (HE staining); assay type: in vivo, rat; settings: OXA+PC-SOD 1 mg/kg; FIG. 4
# Description: A tissue of L5 DRG neuron was collected, stored in a 10% neutral buffered formalin solution, fixed, and then washed with PBS. The tissue was subjected to 70% ethanol substitution to prepare a paraffin block, and the block was thinly sliced and subjected to HE staining. The thickness of the thinly sliced sample block was from 2 to 3 μm. By using the prepared pathological sample slide, one to three images of each sample were captured at 200 and 400-fold magnifications by the optical microscope function of All-in-One Fluorescence Microscope (BZ-X800, Keyence Corporation). Multinucleation of the nucleolus of DRG neurons and abnormal morphology of the nucleolus were assessed as indicators of DRG neuron disorder (Scale bar=50 μm).
substance,measurement,setting,value
lecithinized superoxide dismutase [PC-SOD],influence on the anti-tumor effect of oxaliplatin (cell proliferation),[1],did not affect the anti-tumor effect of oxaliplatin
same,pathological damage to DRG caused by OXA (multinucleation and abnormal morphology of nucleoli),[2],a suppressive effect on pathological damage to DRG caused by OXA was shown
